Patent KR20130112248A, “피라졸로피리미딘 유도체 화합물, 이를 포함하는 산화질소 생성 억제용 조성물 및 뇌신경 질환 예방 및 치료용 약학적 조성물” (한국과학기술연구원, priority 2012, dated 2013)

System: NO production in BV-2 cells [NO 생성; BV-2 세포]
Assay: Nitric oxide (NO) quantification (nitrite, Griess reaction) in LPS-activated BV-2 cells
Format: cell-based
Conditions: 20 μM, LPS 0.2 ㎍/mL, 24 h co-treatment, nitrite by Griess at 540 nm, 1440 min

CSc1nc(NC(C)c2ccccc2)c2cnn(Cc3ccccc3)c2n1 (stereo not shown) [화합물 16k, 1-벤질-6-(메틸티오)-N-(1-페닐에틸)-1H-피라졸로[3,4-d]피리미딘-4-아민] was tested, and the “NO (% of LPS)” value was 31±0.5 % of LPS.
CSc1nc(N[C@H](C)c2ccccc2)c2cnn(C(C)(C)C)c2n1 [화합물 17g, (R)-1-t-뷰틸-4-(1-페닐에틸)아미노-6-(메틸티오)피라졸로[3,4-d]피리미딘] was tested, and the “NO (% of LPS)” value was 42±18 % of LPS.

Same assay, conditions: Mus musculus, BV-2, 24 h, 20 μM, LPS 0.2 ㎍/mL, 24 h co-treatment, nitrite by Griess at 540 nm

Point of comparison: CCCCSc1nc(SC)nc2c1cnn2Cc1ccccc1 [화합물 16m, 1-벤질-4-(뷰틸티오)-6-(메틸티오)-1H-피라졸로[3,4-d]피리미딘], activity at 20 µM 58 ± 1.9%. Against it:
- CSc1nc(Sc2ccc(C)cc2)c2cnn(-c3ccccc3)c2n1 [화합물 15y, 4-(p-톨릴티오)-6-(메틸티오)-1-페닐-1H-피라졸로[3,4-d]피리미딘] — higher, 85 ± 2.3%
- CSc1nc(NC(c2ccccc2)c2ccc(Cl)cc2)c2cnn(-c3ccccc3)c2n1 (stereo not shown) [화합물 15z, N-((4-클로로페닐)(페닐)메틸)-6-(메틸티오)-1-페닐-1H-피라졸로[3,4-d]피리미딘-4-아민] — lower, 46 ± 0.6%
- CSc1nc(NC(C)C2CCCCC2)c2cnn(-c3ccccc3)c2n1 (stereo not shown) [화합물 15za, N-(1-사이클로헥실에틸)-6-(메틸티오)-1-페닐-1H-피라졸로[3,4-d]피리미딘-4-아민] — lower, 36 ± 0.7%
- CSc1nc(NC(C)c2ccc(C)cc2)c2cnn(-c3ccccc3)c2n1 (stereo not shown) [화합물 15zb, 6-(메틸티오)-1-페닐-N-(1-p-톨릴에틸)-1H-피라졸로[3,4-d]피리미딘-4-아민] — lower, 51 ± 0.1%
- COc1ccc([C@H](C)Nc2nc(SC)nc3c2cnn3-c2ccccc2)cc1 [화합물 15zc, N-((S)-1-(4-메톡시페닐)에틸)-6-(메틸티오))-1-페닐-1H-피라졸로[3,4-d]피리미딘-4-아민] — lower, 42 ± 0.9%
- CSc1nc(NCc2ccccc2)c2cnn(Cc3ccccc3)c2n1 [화합물 16a, 1-벤질-4-벤질아미노-6-(메틸티오)피라졸로[3,4-d]피리미딘] — lower, 35 ± 0.5%
- CSc1nc(NCc2ccc(F)cc2)c2cnn(Cc3ccccc3)c2n1 [화합물 16c, 1-벤질-4-(4-플루오로벤질)아미노-6-(메틸티오)피라졸로[3,4-d]피리미딘] — lower, 32.3 ± 3%
- CSc1nc(NCCc2ccccc2)c2cnn(Cc3ccccc3)c2n1 [화합물 16d, 1-벤질-4-(2-페닐에틸)아미노-6-(메틸티오)피라졸로[3,4-d]피리미딘] — lower, 54 ± 1%
- CSc1nc(N[C@H](C)c2ccccc2)c2cnn(Cc3ccccc3)c2n1 [화합물 16e, (R)-1-벤질-4-(1-페닐에틸)아미노-6-(메틸티오)피라졸로[3,4-d]피리미딘] — lower, 36 ± 4%
- CSc1nc(NCc2ccccc2C)c2cnn(Cc3ccccc3)c2n1 [화합물 16f, 1-벤질-4-(2-메틸벤질)아미노-6-(메틸티오)피라졸로[3,4-d]피리미딘] — lower, 35 ± 6%
- COc1ccc(CNc2nc(SC)nc3c2cnn3Cc2ccccc2)cc1 [화합물 16g, 1-벤질-4-(4-메톡시벤질)아미노-6-(메틸티오)피라졸로[3,4-d]피리미딘] — lower, 37 ± 6%
- C=CCNc1nc(SC)nc2c1cnn2Cc1ccccc1 [화합물 16h, 1-벤질-4-알릴아미노-6-(메틸티오)피라졸로[3,4-d]피리미딘] — within error, 66 ± 9%
- CSc1nc(N(CCO)CCO)c2cnn(Cc3ccccc3)c2n1 [화합물 16i, 1-벤질-4-비스(1-하이드록시에틸)아미노-6-(메틸티오)피라졸로[3,4-d]피리미딘] — higher, 79 ± 3%
- CSc1nc(NC(C)(C)CO)c2cnn(Cc3ccccc3)c2n1 [화합물 16j, 1-벤질-4-[(1-하이드록시-2,2-다이메틸)에틸]아미노-6-(메틸티오)피라졸로[3,4-d]피리미딘] — lower, 48 ± 8%
- CCSc1nc(SC)nc2c1cnn2Cc1ccccc1 [화합물 16l, 1-벤질-4-(에틸티오)-6-(메틸티오)-1H-피라졸로[3,4-d]피리미딘] — lower, 48 ± 5.1%
- CSc1nc(SCC(C)C)c2cnn(Cc3ccccc3)c2n1 [화합물 16n, 1-벤질-4-(이소부틸티오)-6-(메틸티오)-1H-피라졸로[3,4-d]피리미딘] — within error, 56 ± 4.5%
- CSc1nc(SCCCCl)c2cnn(Cc3ccccc3)c2n1 [화합물 16o, 4-(3-클로로프로필티오)-1-벤질-6-(메틸티오)-1H-피라졸로[3,4-d]피리미딘] — lower, 43 ± 4.6%
- CSc1nc(Sc2ccc(C)cc2)c2cnn(Cc3ccccc3)c2n1 [화합물 16p, 4-(p-톨릴티오)-1-벤질-6-(메틸티오)-1H-피라졸로[3,4-d]피리미딘] — lower, 34 ± 1.7%
- COc1ccc(Sc2nc(SC)nc3c2cnn3Cc2ccccc2)cc1 [화합물 16q, 4-(4-메톡시페닐티오)-1-벤질-6-(메틸티오)-1H-피라졸로[3,4-d]피리미딘] — lower, 40 ± 1.8%
- CSc1nc(Sc2ccc(Cl)cc2)c2cnn(Cc3ccccc3)c2n1 [화합물 16r, 4-(4-클로로페닐티오)-1-벤질-6-(메틸티오)-1H-피라졸로[3,4-d]피리미딘] — lower, 20 ± 1.9%
- CSc1nc(SCc2ccccc2Cl)c2cnn(Cc3ccccc3)c2n1 [화합물 16s, 4-(2-클로로벤질티오)-1-벤질-6-(메틸티오)-1H-피라졸로[3,4-d]피리미딘] — higher, 66 ± 2.6%
- CSc1nc(Sc2c(Cl)cccc2Cl)c2cnn(Cc3ccccc3)c2n1 [화합물 16t, 4-(2,6-다이클로로페닐티오)-1-벤질-6-(메틸티오)-1H-피라졸로[3,4-d]피리미딘] — lower, 43 ± 1.2%
- CSc1nc(Sc2ccc(F)cc2)c2cnn(Cc3ccccc3)c2n1 [화합물 16u, 4-(4-플루오로페닐티오)-1-벤질-6-(메틸티오)-1H-피라졸로[3,4-d]피리미딘] — lower, 28 ± 1.8%
- CCCCCCCCSc1nc(SC)nc2c1cnn2Cc1ccccc1 [화합물 16v, 1-벤질-6-(메틸티오)-4-(옥틸티오)-1H-피라졸로[3,4-d]피리미딘] — higher, 95 ± 4%
- CSc1nc(NC(C)c2ccccc2)c2cnn(Cc3ccccc3)c2n1 (stereo not shown) [화합물 16x, 1-벤질-6-(메틸티오)-N-(1-페닐에틸)-1H-피라졸로[3,4-d]피리미딘-4-아민] — lower, 34 ± 1.4%
- CSc1nc(NC(c2ccccc2)c2ccc(Cl)cc2)c2cnn(Cc3ccccc3)c2n1 (stereo not shown) [화합물 16y, 1-벤질-N-((4-클로로페닐)(페닐)메틸)-6-(메틸티오)-1H-피라졸로[3,4-d]피리미딘-4-아민] — lower, 41 ± 0.9%
- CSc1nc(NC(C)C2CCCCC2)c2cnn(Cc3ccccc3)c2n1 (stereo not shown) [화합물 16z, 1-벤질-N-(1-사이클로헥실에틸)-6-(메틸티오)-1H-피라졸로[3,4-d]피리미딘-4-아민] — lower, 26 ± 2.4%
- CSc1nc(NC(C)c2ccc(C)cc2)c2cnn(Cc3ccccc3)c2n1 (stereo not shown) [화합물 16za, 1-벤질-6-(메틸티오)-N-(1-p-톨릴에틸)-1H-피라졸로[3,4-d]피리미딘-4-아민] — lower, 40 ± 1.3%
- COc1ccc([C@H](C)Nc2nc(SC)nc3c2cnn3Cc2ccccc2)cc1 [화합물 16zb, 1-벤질-N-((S)-1-(4-메톡시페닐)에틸)-6-(메틸티오)-1H-피라졸로[3,4-d]피리미딘-4-아민] — lower, 49 ± 2.4%
- COc1ccccc1CNc1nc(SC)nc2c1cnn2Cc1ccccc1 [화합물 16zc, N-(2-메톡시벤질)-1-벤질-6-(메틸티오)-1H-피라졸로[3,4-d]피리미딘-4-아민] — lower, 50 ± 1.1%
- CSc1nc(NCc2ccc(Cl)cc2)c2cnn(Cc3ccccc3)c2n1 [화합물 16zd, N-(4-클로로벤질)-1-벤질-6-(메틸티오)-1H-피라졸로[3,4-d]피리미딘-4-아민] — lower, 46 ± 1.9%
- CSc1nc(NCc2ccc(C)cc2)c2cnn(Cc3ccccc3)c2n1 [화합물 16ze, N-(4-메틸벤질)-1-벤질-6-(메틸티오)-1H-피라졸로[3,4-d]피리미딘-4-아민] — lower, 51 ± 3.4%
- COc1cccc(CNc2nc(SC)nc3c2cnn3Cc2ccccc2)c1 [화합물 16zf, N-(3-메톡시벤질)-1-벤질-6-(메틸티오)-1H-피라졸로[3,4-d]피리미딘-4-아민] — lower, 49 ± 0.6%
- CCCCNc1nc(SC)nc2c1cnn2Cc1ccccc1 [화합물 16zg, 1-벤질-N-뷰틸-6-(메틸티오)-1H-피라졸로[3,4-d]피리미딘-4-아민] — within error, 55 ± 1.9%
- CSc1nc(NCc2ccccn2)c2cnn(Cc3ccccc3)c2n1 [화합물 16zh, 1-벤질-6-(메틸티오)-N-((피리딘-2-일)메틸)-1H-피라졸로[3,4-d]피리미딘-4-아민] — within error, 53 ± 7.2%
- CSc1nc(NCc2ccccc2Cl)c2cnn(Cc3ccccc3)c2n1 [화합물 16zi, N-(2-클로로벤질)-1-벤질-6-(메틸티오)-1H-피라졸로[3,4-d]피리미딘-4-아민] — lower, 39 ± 3.1%
- CSc1nc(NCc2ccccc2)c2cnn(C(C)(C)C)c2n1 [화합물 17a, 1-t-뷰틸-4-벤질아미노-6-(메틸티오)피라졸로[3,4-d]피리미딘] — higher, 73 ± 3%
- CSc1nc(N[C@H](C)c2ccccc2)c2cnn(C(C)(C)C)c2n1 [화합물 17b, (R)-1-t-뷰틸-4-(1-페닐에틸)아미노-6-(메틸티오)피라졸로[3,4-d]피리미딘] — higher, 61 ± 1%
- CSc1nc(NCc2ccc(F)cc2)c2cnn(C(C)(C)C)c2n1 [화합물 17c, 1-t-뷰틸-4-(4-플루오로벤질)아미노-6-(메틸티오)피라졸로[3,4-d]피리미딘] — within error, 59 ± 2%
- COc1ccc(CNc2nc(SC)nc3c2cnn3C(C)(C)C)cc1 [화합물 17e, 1-t-뷰틸-4-(4-메톡시벤질)아미노-6-(메틸티오)피라졸로[3,4-d]피리미딘] — lower, 21 ± 27%
- C=CCNc1nc(SC)nc2c1cnn2C(C)(C)C [화합물 17f, 1-t-뷰틸-4-알릴아미노-6-(메틸티오)피라졸로[3,4-d]피리미딘] — higher, 89 ± 8%
- CSc1nc(NCCc2ccccc2)c2cnn(C(C)(C)C)c2n1 [화합물 17h, 1-t-뷰틸-4-(2-페닐에틸)아미노-6-(메틸티오)피라졸로[3,4-d]피리미딘] — higher, 61 ± 1%
- COc1ccccc1CNc1nc(SC)nc2c1cnn2C(C)(C)C [화합물 17i, N-(2-메톡시벤질)-1-t-뷰틸-6-(methylthio)-1H-피라졸로[3,4-d]피리미딘-4-아민] — lower, 45 ± 5.9%
- CSc1nc(NCc2ccc(Cl)cc2)c2cnn(C(C)(C)C)c2n1 [화합물 17j, N-(4-클로로벤질)-1-t-뷰틸-6-(methylthio)-1H-피라졸로[3,4-d]피리미딘-4-아민] — lower, 19 ± 3.9%
- COc1cccc(CNc2nc(SC)nc3c2cnn3C(C)(C)C)c1 [화합물 17k, N-(3-메톡시벤질)-1-t-뷰틸-6-(methylthio)-1H-피라졸로[3,4-d]피리미딘-4-아민] — lower, 51 ± 5%
- CCCCNc1nc(SC)nc2c1cnn2C(C)(C)C [화합물 17l, 1-t-뷰틸-N-뷰틸-6-(메틸티오)-1H-피라졸로[3,4-d]피리미딘-4-아민] — higher, 82 ± 9.5%
- CSc1nc(NCc2ccccn2)c2cnn(C(C)(C)C)c2n1 [화합물 17m, 1-t-뷰틸-6-(메틸티오)-N-((피리딘-2-일)메틸)-1H-피라졸로[3,4-d]피리미딘-4-아민] — higher, 92 ± 6.6%
- CSc1nc(NCc2ccccc2Cl)c2cnn(C(C)(C)C)c2n1 [화합물 17n, N-(2-클로로벤질)-1-t-뷰틸-6-(메틸티오)-1H-피라졸로[3,4-d]피리미딘-4-아민] — lower, 38 ± 2.9%
- CSc1nc(NC(C)(C)CO)c2cnn(C(C)(C)C)c2n1 [화합물 17o, 2-(1-t-뷰틸-6-(메틸티오)-1H-피라졸로[3,4-d]피리미딘-4-일아미노)-2-메틸프로판-1-올] — higher, 73.6 ± 2.4%
- COc1cccc(CCn2ncc3c(NCc4ccccc4Cl)nc(SC)nc32)c1 [화합물 18a, N-(2-클로로벤질)-1-(3-메톡시펜에틸)-6-(메틸티오)-1H-피라졸로[3,4-d]피리미딘-4-아민] — within error, 43 ± 18.1%
- COc1cccc(CCn2ncc3c(NCc4ccccc4OC)nc(SC)nc32)c1 [화합물 18b, N-(2-메톡시벤질)-1-(3-메톡시펜에틸)-6-(메틸티오)-1H-피라졸로[3,4-d]피리미딘-4-아민] — lower, 37 ± 17.6%
- COc1cccc(CCn2ncc3c(NCc4ccccc4C)nc(SC)nc32)c1 [화합물 18c, N-(2-메틸벤질)-1-(3-메톡시펜에틸)-6-(메틸티오)-1H-피라졸로[3,4-d]피리미딘-4-아민] — lower, 37 ± 7.9%
